From patent US20110182909A1, “Glufosfamide combination therapy” (priority 2004, published 2011)
Where two headings read alike, the source gives them in different places. Values belong to the compound of their own block, whether it stands above or below them.

Key:
[1] = test system: Ramos cells (Burkitt's lymphoma); experiment: Alamar Blue cell proliferation assay (3 days); format: cell-based; conditions: for Cell proliferation as % control: 3 days; for IC50: single agent
Protocol: Ramos cells lines (Burkitt's lymphoma) were obtained from the American Type Culture Collection (ATCC, Rockville, Md.). All cell lines were cultured in Dulbecco's modified Eagle's medium supplemented with 10% fetal calf serum, sodium pyruvate, nonessential amino acids, L-glutamine, vitamins, and antibiotics. Cells were maintained in a humidified incubator containing 5% CO2, 21% O2, at 37° C. All chemical reagents were purchased from Sigma Chemical Co. (St. Louis, Mo.) unless otherwise specified. Glufosfamide was provided directly by Threshold Pharmaceuticals and reconstituted in PBS freshly for each study.
To determine the effect of the combinations of the present invention on cell proliferation, the antiproliferative activity of these combinations was tested in a multi-well Alamar Blue based assay (at 3 days). Cell growth in the presence and absence of the test compound as tabulated in Table 1 was compared, as measured by a fluorescence plate reader at excitation 550 nm and emission 590 nm (see Biosource International Inc., Tech Application Notes, Use of Alainar Blue in the measurement of Cell Viability and Toxicity, Determining IC50). Ramos cells (Burkitt's lymphoma) (ATCC Catalog #CRL-1596), 3000 cells/well/180 μl) were seeded in a 96 well plate in RPMI medium (Invitrogen Corporation, Carlsbad, Calif.) and incubated overnight. After 24 hours, these plates were divided into Control group and 3 day treatment group.
A test compound (Glufosfamide, Carboplatin, or Etoposide) was added to each plate in the treatment groups at a concentration as tabulated in Tables 1A-1D (in 200 μl of medium, respectively). The cells were incubated for 3 days, followed by staining with AlamarBlue. In the Control group, AlamarBlue was added to the plate at (i) day 0 and (ii) day 3 and measured to establish the control reading. In all the groups, the capacity of the cells to proliferate was measured 17 hours after addition of AlamarBlue using a fluorescence plate reader at excitation 550 nm and emission 590 nm. […] Dose dependent percent inhibition was calculated using Graphpad Prism® (GraphPad Software, Inc.). These values were then applied against the Combination Index (CI) method as described by Chou and Talalay (Chou, T. C. and Talalay, P., Quantitative analysis of dose-effect relationships: The combined effects of multiple drugs or enzyme inhibitors. Adv. Enz. Regul. 22:27-55, 1984) using CalcuSyn software (Biosoft).
The effect of the combinations of the present invention on cell proliferation was determined by comparing cell growth in the presence and absence of the test combinations as tabulated in the tables below according to the procedure described above.

[2] = in contrast to ifosfamide; cited from earlier work
[3] = mesna given concomitantly with ifosfamide; cited from earlier work

SMILES: N.N.O=C([O-])C1(C(=O)[O-])CCC1.[Pt+2] [Carboplatin]
- Cell proliferation as % control ([1]; Table 1A, Carboplatin 0.4 μM): 97 % control
- Cell proliferation as % control ([1]; Table 1A, Carboplatin 3.7 μM): 94 % control
- Cell proliferation as % control ([1]; Table 1A, Carboplatin 11 μM): 68 % control
- Cell proliferation as % control ([1]; Table 1A, Carboplatin 33 μM): 46 % control
- Cell proliferation as % control ([1]; Table 1A, Carboplatin 100 μM): 0 % control
- Cell proliferation as % control ([1]; Table 1A, Carboplatin 300 μM): 0 % control
- IC50 ([1]; Table 1B, 3 days (from Table 1A), read-out: IC50): 25 µM
- Cell proliferation as % control ([1]; Table 1C, Carboplatin 0.4 μM): 98 % control
- Cell proliferation as % control ([1]; Table 1C, Carboplatin 3.7 μM): 89 % control
- Cell proliferation as % control ([1]; Table 1C, Carboplatin 11 μM): 74 % control
- Cell proliferation as % control ([1]; Table 1C, Carboplatin 33 μM): 45 % control
- Cell proliferation as % control ([1]; Table 1C, Carboplatin 100 μM): 0 % control
- Cell proliferation as % control ([1]; Table 1C, Carboplatin 300 μM): 0 % control
- IC50 ([1]; Table 1D, 3 days (from Table 1C), read-out: IC50): 25 µM

- IC50 ([1]; Homo sapiens, 72 h, Table 1B, 3 days (from Table 1A), read-out: IC50): < 0.13 µM
- IC50 ([1]; Homo sapiens, 72 h, Table 1D, 3 days (from Table 1C), read-out: IC50): 0.076 µM
SMILES: COc1cc([C@@H]2c3cc4c(cc3[C@@H](O[C@@H]3O[C@@H]5CO[C@@H](C)O[C@H]5[C@H](O)[C@H]3O)[C@H]3COC(=O)[C@H]23)OCO4)cc(OC)c1O [Etoposide]
- Cell proliferation as % control ([1]; Table 1A, Etoposide 0.13 μM): 37 % control
- Cell proliferation as % control ([1]; Table 1A, Etoposide 0.4 μM): 26 % control
- Cell proliferation as % control ([1]; Table 1A, Etoposide 3.7 μM): 3 % control
- Cell proliferation as % control ([1]; Table 1A, Etoposide 11 μM): 0 % control
- Cell proliferation as % control ([1]; Table 1A, Etoposide 33 μM): 0 % control
- Cell proliferation as % control ([1]; Table 1A, Etoposide 100 μM): 0 % control
- Cell proliferation as % control ([1]; Table 1C, Etoposide 0.004 μM): 97 % control
- Cell proliferation as % control ([1]; Table 1C, Etoposide 0.013 μM): 91 % control
- Cell proliferation as % control ([1]; Table 1C, Etoposide 0.04 μM): 62 % control
- Cell proliferation as % control ([1]; Table 1C, Etoposide 0.37 μM): 35 % control
- Cell proliferation as % control ([1]; Table 1C, Etoposide 1.1 μM): 14 % control
- Cell proliferation as % control ([1]; Table 1C, Etoposide 3.3 μM): 0 % control
- Cell proliferation as % control ([1]; Table 1C, Etoposide 10 μM): 0 % control

SMILES: O=P(NCCCl)(NCCCl)OC1OC(CO)C(O)C(O)C1O [Glufosfamide, α-D-glucosyl-ifosfamide mustard]
- IC50 ([1]; Homo sapiens, 72 h, Table 1B, 3 days (from Table 1A)): 180 µM
- IC50 ([1]; Homo sapiens, 72 h, Table 1D, 3 days (from Table 1C)): 120 µM
- Cell proliferation as % control ([1]; Table 1A, Glufosfamide 0.7 μM): 91 % control
- Cell proliferation as % control ([1]; Table 1A, Glufosfamide 2 μM): 92 % control
- Cell proliferation as % control ([1]; Table 1A, Glufosfamide 6 μM): 94 % control
- Cell proliferation as % control ([1]; Table 1A, Glufosfamide 19 μM): 81 % control
- Cell proliferation as % control ([1]; Table 1A, Glufosfamide 56 μM): 65 % control
- Cell proliferation as % control ([1]; Table 1A, Glufosfamide 167 μM): 65 % control
- Cell proliferation as % control ([1]; Table 1A, Glufosfamide 500 μM): 0 % control
- Cell proliferation as % control ([1]; Table 1C, Glufosfamide 9 μM): 91 % control
- Cell proliferation as % control ([1]; Table 1C, Glufosfamide 19 μM): 79 % control
- Cell proliferation as % control ([1]; Table 1C, Glufosfamide 37.5 μM): 70 % control
- Cell proliferation as % control ([1]; Table 1C, Glufosfamide 75 μM): 64 % control
- Cell proliferation as % control ([1]; Table 1C, Glufosfamide 150 μM): 54 % control
- Cell proliferation as % control ([1]; Table 1C, Glufosfamide 300 μM): 11 % control
- Cell proliferation as % control ([1]; Table 1C, Glufosfamide 600 μM): 0 % control
- production of chloroacetaldehyde [2]: produces less chloroacetaldehyde
- release of the toxic metabolite acrolein [2]: does not release the toxic metabolite acrolein

SMILES: O=S(=O)(O)CCS [mesna, mercaptoethane sulfonate sodium]
- patients who do not respond to mesna and develop hematuria [3]: up to 6%
